Consider two compounds from paper PMC11313944, “Ethyl Acetate Fraction from Eleutherococcus divaricatus Root Extract as a Promising Source of Compounds with Anti-Hyaluronidase, Anti-Tyrosinase, and Antioxidant Activity but Not Anti-Melanoma Activity” (Molecules, 2024).

Assay [1] can be described thus: Iron (II) ion chelation assay (ferrozine). To be noted: results for 1 mg/mL.
Method: The ion chelation assay was conducted using the method proposed by Li et al. [54]. Initially, 100 μL of extract at a concentration of 1.0 mg/mL was combined with methanol (150 μL, MeOH) and iron(II) chloride (5 μL, FeCl2) at a concentration of 2 mM. Subsequently, 5 μL of ferrozine was added at a concentration of 5 mM. Following a period of incubation, the absorbance was measured at a wavelength of 510 nm. The degree of chelation was then calculated using a specific equation, with ethylenediaminetetraacetic acid (EDTA) serving as a positive control. INHFe^2+=AC−AS/AC∗100%
AS—the absorbance for sample + ferrozine + FeCl2;
AC—the absorbance without sample + ferrozine + FeCl2.
For assay [2], the system named is MCF-7 human breast adenocarcinoma cell line. Also on record: method as in PMID 25918798. To be noted: read-out: IC50 antiproliferative; cited from earlier work.

Structures are written as SMILES.

Regarding `O=C(O)CN(CCN(CC(=O)O)CC(=O)O)CC(=O)O` [EDTA, ethylenediaminetetraacetic acid], the “Ferrozine (iron(II) chelation)” value in assay [1] is 98.9 ± 0.01%.
The term IC50 denotes the concentration needed to halve the response being measured. Turning to `O=C1OCc2c1c(-c1ccc3c(c1)OCO3)c1cc3c(cc1c2O)OCO3` [taiwanin E], the concentration for half-maximal inhibition (IC50) in assay [2] is 1.47 µM.
